Here are results for five compounds from article PMC11542721, “Molecular properties, including chameleonicity, as essential tools for designing the next generation of oral beyond rule of five drugs” (ADMET & DMPK, 2024).

The conditions of series [1]: cited from earlier work.
The nature of series [2]: Ionization behaviour from variation of log k'80 PLRP-S at three pHs. Format: physicochemical. The following applies: for A/B: acid or base profile: log k'80 PLRP-S at acidic, neutral and basic pH. The source says: The ionization constant (usually reported as pKa) is an important parameter for evaluating ionizable molecules since it may have a decisive impact on the in vitro ADME properties. […] Since the experimental determination of pKa is not a trivial assay and a certain degree of expertise is required, Caron’s group observed that the ionization behaviour (not the pKa) of a molecule can be obtained by monitoring the variation of the log of the capacity factor in the PLRP-S system (log k'80 PLRP-S) vs. the pH [15]. […] In many cases, ionization is completely overlooked, and in some instances, it is predicted using standard calculators not designed for large, flexible molecules.
Then, we focused on experimental descriptors. We first explored the ionization behavior of the three PROTACS by monitoring the variation in log k'80 PLRP-s at three pHs.

Series [3] is described as follows: BRlogD chromatographic lipophilicity (octanol/water surrogate).
The nature of series [4]: Chamelogk chromatographic chameleonicity descriptor (PLRP-S). The following applies: Exp. minus Ext. log k' 100 PLRP-S. Format: physicochemical. As to the method: Therefore, we recently implemented a chromatographic descriptor, Chamelogk, that measures chameleonicity in a unique and dynamic system. To obtain Chamelogk (Figure 5B), the first step involves the experimental determination of the capacity factor (log k' PLRP-S) at 50, 60, and 70 % of acetonitrile. Then, the linear correlation between the log k' PLRP-S and the percentage of MeCN is determined. The equation derived from the linear correlation is then applied to extrapolate the capacity factor at 100 % (called Ext. log k’ 100 PLRP-S). Then, the experimental value at 100 % MeCN is measured (named Exp. log k’ 100 PLRP-S) and the difference with the extrapolated value is calculated. Thus, Chamelogk is defined as the capacity factor difference (Δ log k') between the experimental log k' measured at 100 % MeCN (Exp. log k' 100) and the extrapolated value (Ext. log k’ 100), as shown by Equation 2 and Figure 5B.

The nature of series [5]: IAM chromatography (log kw^IAM and Δ log kw^IAM). Format: physicochemical. The following applies: for log kw^IAM: IAM column, extrapolated to 0% organic solvent; for Δ log kw^IAM: polarity descriptor. From the text:
Furthermore, RP-HPLC methods generate biomimetic environments. For example, immobilized artificial membrane (IAM) chromatography, first introduced by Charles Pidgeon and his colleagues, is used to simulate biological cell membranes. IAM columns consist of a monolayer of phosphatidylcholine covalently bound to an inert silica support . The reference descriptor is the logarithm of the capacity factor at 0% organic solvent (extrapolated value), named log kW^IAM. In the IAM system, the retention of charged molecules also depends on the electrostatic interactions with the phospholipid heads.
Without entering the method details that can be retrieved in the literature, Δ log kw^IAM represents the polarity of the analyte.

For series [6], the system named is enzalutamide-insensitive tumours. Further details: method as in PMID 36508999. The following applies: cited from earlier work.
For series [7] the following is noted: preclinical models; cited from earlier work.
The next series concerns advanced breast cancer. Further details: method as in doi:10.1016/j.annonc.2023.09.567. The following applies: phase I and II, cited from earlier work.
A further series relates to ER (estrogen receptor). Further details: method as in doi:10.1016/j.annonc.2023.09.567. The conditions noted are these: tumor cell lines, in vitro; cited from earlier work.
The subject of series [8] is Bcl-xL (B-cell lymphoma extra-large). Further details: method as in PMID 32677976. The following applies: cancer cells, preclinical studies; cited from earlier work.
For series [9] the following is noted: mouse; cited from earlier work.
[10] abbreviates: RP-HPLC, surrogate of octanol/water.

The structures appear in SMILES notation. Read-outs that look alike come from different tables or passages of the source.

What is called chromatographic logD is lipophilicity estimated from chromatographic retention. Read a high chromatographic logD as higher lipophilicity.

`N#Cc1ccc(O[C@H]2CC[C@H](NC(=O)c3ccc(N4CCC(CN5CCN(c6cc7c(cc6F)C(=O)N(C6CCC(=O)NC6=O)C7=O)CC5)CC4)nn3)CC2)cc1Cl` (stereo partly drawn) [ARV-110, bavdegalutamide]: the Absorption result in series [1] is on record as “Oral”. Also, in [2], the “A/B: acid or base profile” value is “basic and Base”; the “Ionization state at pH 7” value is “predominantly neutral”. The compound also gave a chromatographic logD in series [3] of 4.25. The Chamelogk in [4] stood at 0.99. In addition, in [5], the “log kw^IAM” value is listed as 3.20 and the “Δ log kw^IAM” value stood at 0.33. Further, the “Tumour growth in vivo” value in [6] was “significantly inhibited the growth”. Further, the “Oral bioavailability F” value in [7] was greater than 30%.

For the compound `O=C1CC[C@H](N2Cc3cc(N4CCN(CC5CCN(c6ccc([C@@H]7c8ccc(O)cc8CC[C@@H]7c7ccccc7)cc6)CC5)CC4)ccc3C2=O)C(=O)N1` [ARV-471, vepdegestrant], the Absorption result in series [1] is “Oral”. In series [2], the “A/B: acid or base profile” value was “basic and Base”; the “Ionization state at pH 7” value is listed as “predominantly neutral”. The compound further registered a chromatographic logD in series [3] (setting [10]) of 4.73. Besides, in series [5], the “log kw^IAM” value is given as 3.39 and the “Δ log kw^IAM” value is given as 0.07. Besides, the Clinical activity entry in the series on advanced breast cancer (advanced breast cancer patients) is given as “showed clinical activity”. Besides, the Tolerability entry in the series with advanced breast cancer (all doses orally administered) is “well tolerated”. For the same compound, the ER degradation result in the series with ER (estrogen receptor) was “up to 97%”. Further, the “Oral bioavailability F” value in [7] is reported as greater than 30%.

In the case of `Cc1sc2c(c1C)C(c1ccc(Cl)cc1)=N[C@@H](CC(=O)Nc1ccc(OCCOCCOCCOCCNc3cccc4c3C(=O)N(C3CCC(=O)NC3=O)C4=O)cc1)c1nnc(C)n1-2` (stereo partly drawn) [ARV-825], in series [2], the “A/B: acid or base profile” value is given as “nonionizable”.

On to `Cc1ncsc1-c1ccc([C@H](C)NC(=O)[C@@H]2C[C@@H](O)CN2C(=O)[C@@H](NC(=O)CCCCCC(=O)N2CCN(CC[C@H](CSc3ccccc3)Nc3ccc(S(=O)(=O)NC(=O)c4ccc(N5CCN(CC6=C(c7ccc(Cl)cc7)CCC(C)(C)C6)CC5)cc4)cc3S(=O)(=O)C(F)(F)F)CC2)C(C)(C)C)cc1` [DT2216], for which the Absorption result in series [1] is reported as “Intravenous”. Also, in series [2], the “A/B: acid or base profile” value is “ampholyte”. Also, in [8], the “Degradation of Bcl-xL” value is “selectively induced degradation of Bcl-xL”. Further, in series [9], the “Oral bioavailability F” value was less than 0.03%. In series [3] (setting [10]), this compound gave a chromatographic logD greater than 6. Also, the “log kw^IAM” value in series [5] is greater than 4.

For the compound `C=C[C@@H]1C[C@]1(NC(=O)[C@@H]1C[C@@H](Oc2ncc(OC)c3ccc(Cl)cc23)CN1C(=O)[C@@H](NC(=O)OC(C)(C)C)C(C)(C)C)C(=O)NS(=O)(=O)C1CC1` [asunaprevir], the “A/B: acid or base profile” value in [2] is “acidic”.
